Measured values as given in article PMC11157767 (Molecular Cancer, 2024).

System: TRIM24-MET-i cells
Conditions: GSEA, v. DMSO
Description: The number of unique and shared differentially expressed genes between each comparison are shown in parentheses. A linear regression line is depicted along with Pearson’s correlation coefficient (r) and its associated p-value. […] Common negatively enriched genesets between all three comparisons are in bold. c, Heatmaps showing expression of Hallmark_Myc_Target_v1/2 genes for indicated cells and treatment comparisons (TRIM-MET cells were treated in vitro, TFG-MET cells in vivo). Select leading edge genes from GSEA are labeled.

C[C@@H](Oc1cc(-c2cnn(C3CCNCC3)c2)cnc1N)c1c(Cl)ccc(F)c1Cl [Crizotinib]
ES GOCC_MITOCHONDRIAL_ENVELOPE: -0.5203
ES GOCC_ORGANELLE_INNER_MEMBRANE: -0.5635
ES GOCC_PRERIBOSOME: -0.8837
ES GOCC_RIBONUCLEOPROTEIN_COMPLEX: -0.6028
ES GOCC_RIBOSOME: -0.6378
ES GOMF_STRUCTURAL_CONSTITUENT_OF_RIBOSOME: -0.6065
ES HALLMARK_ADIPOGENESIS: -0.3925
ES HALLMARK_ALLOGRAFT_REJECTION: -0.3891
ES HALLMARK_ANDROGEN_RESPONSE: -0.4501
ES HALLMARK_ANGIOGENESIS: -0.5001
ES HALLMARK_APICAL_JUNCTION: -0.2207
ES HALLMARK_APICAL_SURFACE: 0.438
ES HALLMARK_APOPTOSIS: -0.353
ES HALLMARK_CHOLESTEROL_HOMEOSTASIS: -0.4271
ES HALLMARK_COAGULATION: -0.3066
ES HALLMARK_COMPLEMENT: -0.2741
ES HALLMARK_DNA_REPAIR: -0.3968
ES HALLMARK_E2F_TARGETS: -0.4061
ES HALLMARK_EPITHELIAL_MESENCHYMAL_TRANSITION: -0.2384
ES HALLMARK_ESTROGEN_RESPONSE_EARLY: -0.4462
ES HALLMARK_ESTROGEN_RESPONSE_LATE: -0.2995
ES HALLMARK_G2M_CHECKPOINT: -0.4157
ES HALLMARK_GLYCOLYSIS: -0.4578
ES HALLMARK_HEDGEHOG_SIGNALING: -0.4357
ES HALLMARK_HYPOXIA: -0.2949
ES HALLMARK_IL2_STAT5_SIGNALING: -0.5104
ES HALLMARK_IL6_JAK_STAT3_SIGNALING: -0.3352
ES HALLMARK_INFLAMMATORY_RESPONSE: -0.4227
ES HALLMARK_INTERFERON_ALPHA_RESPONSE: 0.333
ES HALLMARK_INTERFERON_GAMMA_RESPONSE: -0.2664
ES HALLMARK_KRAS_SIGNALING_DN: 0.421
ES HALLMARK_KRAS_SIGNALING_UP: -0.3522
ES HALLMARK_MITOTIC_SPINDLE: 0.3203
ES HALLMARK_MTORC1_SIGNALING: -0.615
ES HALLMARK_MYC_TARGETS_V1: -0.7224
ES HALLMARK_MYC_TARGETS_V2: -0.8712
ES HALLMARK_MYOGENESIS: 0.2133
ES HALLMARK_NOTCH_SIGNALING: -0.3408
ES HALLMARK_OXIDATIVE_PHOSPHORYLATION: -0.5351
ES HALLMARK_P53_PATHWAY: -0.3345
ES HALLMARK_PANCREAS_BETA_CELLS: 0.2531
ES HALLMARK_PEROXISOME: -0.2701
ES HALLMARK_PI3K_AKT_MTOR_SIGNALING: -0.3822
ES HALLMARK_PROTEIN_SECRETION: -0.253
ES HALLMARK_TGF_BETA_SIGNALING: -0.4216
ES HALLMARK_TNFA_SIGNALING_VIA_NFKB: -0.4566
ES HALLMARK_UNFOLDED_PROTEIN_RESPONSE: -0.6894
ES HALLMARK_UV_RESPONSE_DN: 0.2824
ES HALLMARK_UV_RESPONSE_UP: -0.4491
ES HALLMARK_WNT_BETA_CATENIN_SIGNALING: -0.3428
ES KRIGE_RESPONSE_TO_TOSEDOSTAT_6HR_DN: -0.7282
ES KRIGE_RESPONSE_TO_TOSEDOSTAT_24HR_DN: -0.7493
ES LEE_BMP2_TARGETS_DN: -0.726
ES PUJANA_CHEK2_PCC_NETWORK: -0.6234
ES WEI_MYCN_TARGETS_WITH_E_BOX: -0.7486
NES GOBP_NCRNA_PROCESSING: -2.807
NES GOBP_RIBONUCLEOPROTEIN_COMPLEX_BIOGENESIS: -2.6966
NES GOBP_RIBOSOME_BIOGENESIS: -2.885
NES GOCC_MITOCHONDRIAL_ENVELOPE: -1.997
NES GOCC_ORGANELLE_INNER_MEMBRANE: -2.127
NES GOCC_PRERIBOSOME: -2.754
NES GOCC_RIBONUCLEOPROTEIN_COMPLEX: -2.312
NES GOCC_RIBOSOME: -2.274
NES GOMF_STRUCTURAL_CONSTITUENT_OF_RIBOSOME: -2.105
NES HALLMARK_ADIPOGENESIS: -1.373
NES HALLMARK_ALLOGRAFT_REJECTION: -1.343
NES HALLMARK_ANDROGEN_RESPONSE: -1.464
NES HALLMARK_ANGIOGENESIS: -1.355
NES HALLMARK_APICAL_JUNCTION: -0.7717
NES HALLMARK_APICAL_SURFACE: 1.391
NES HALLMARK_APOPTOSIS: -1.211
NES HALLMARK_CHOLESTEROL_HOMEOSTASIS: -1.341
NES HALLMARK_COMPLEMENT: -0.9577
NES HALLMARK_DNA_REPAIR: -1.352
NES HALLMARK_E2F_TARGETS: -1.43
NES HALLMARK_EPITHELIAL_MESENCHYMAL_TRANSITION: -0.8343
NES HALLMARK_ESTROGEN_RESPONSE_EARLY: -1.563
NES HALLMARK_ESTROGEN_RESPONSE_LATE: -1.046
NES HALLMARK_G2M_CHECKPOINT: -1.457
NES HALLMARK_GLYCOLYSIS: -1.603
NES HALLMARK_HEDGEHOG_SIGNALING: -1.2
NES HALLMARK_HYPOXIA: -1.03
NES HALLMARK_IL2_STAT5_SIGNALING: -1.788
NES HALLMARK_IL6_JAK_STAT3_SIGNALING: -1.065
NES HALLMARK_INFLAMMATORY_RESPONSE: -1.474
NES HALLMARK_INTERFERON_ALPHA_RESPONSE: 1.217
NES HALLMARK_INTERFERON_GAMMA_RESPONSE: -0.9329
NES HALLMARK_KRAS_SIGNALING_DN: 1.674
NES HALLMARK_KRAS_SIGNALING_UP: -1.231
NES HALLMARK_MITOTIC_SPINDLE: 1.318
NES HALLMARK_MTORC1_SIGNALING: -2.165
NES HALLMARK_MYC_TARGETS_V1: -2.537
NES HALLMARK_MYC_TARGETS_V2: -2.6498
NES HALLMARK_MYOGENESIS: 0.8749
NES HALLMARK_NOTCH_SIGNALING: -0.9083
NES HALLMARK_OXIDATIVE_PHOSPHORYLATION: -1.871
NES HALLMARK_P53_PATHWAY: -1.1707
NES HALLMARK_PANCREAS_BETA_CELLS: 0.7398
NES HALLMARK_PEROXISOME: -0.8785
NES HALLMARK_PI3K_AKT_MTOR_SIGNALING: -1.243
NES HALLMARK_PROTEIN_SECRETION: -0.8206
NES HALLMARK_TGF_BETA_SIGNALING: -1.271
NES HALLMARK_TNFA_SIGNALING_VIA_NFKB: -1.6076
NES HALLMARK_UNFOLDED_PROTEIN_RESPONSE: -2.272
NES HALLMARK_UV_RESPONSE_DN: 1.115
NES HALLMARK_UV_RESPONSE_UP: -1.536
NES HALLMARK_WNT_BETA_CATENIN_SIGNALING: -0.9746
NES KRIGE_RESPONSE_TO_TOSEDOSTAT_6HR_DN: -2.811
NES KRIGE_RESPONSE_TO_TOSEDOSTAT_24HR_DN: -2.908
NES LEE_BMP2_TARGETS_DN: -2.799
NES PUJANA_CHEK2_PCC_NETWORK: -2.394
NES WEI_MYCN_TARGETS_WITH_E_BOX: -2.882
